Reference: patent US20110177179A1, “PREPARATION OF BOTANICAL EXTRACTS CONTAINING ABSORBABLE COMPONENTS USING PHARMACEUTICAL PLATFORM TECHNOLOGY” (SINOVEDA CANADA, INC., priority 2010, published 2011)
Read-outs that look alike come from different tables or passages of the source.

Key:
[1] = system: colonic bacteria; experiment: Metabolism by colonic (intestinal) bacteria, anaerobic incubation with fecal sample; type: in vitro ADME, rat; details: for metabolism by colonic bacteria (change in level): Red clover methanolic extract, anaerobic, 37° C., up to 24 hours
Protocol: The effect of colonic bacteria on the stability of a methanolic extract of Red clover was evaluated. The procedures reported by Schneider et al. (Schneider, Simmering et al. 2000) was used to prepare a fecal sample collected from a rat. The extract was incubated anaerobically at 37° C. for a period of 24 hours.

[2] = major component of Chuanxiong; Yan, Ko et al. 2008; cited from earlier work
[3] = system: MDCK cells; experiment: Permeability of extract components through MDCK cell monolayer; type: in vitro ADME; details: for permeability versus molecular weight trend: Rhodiola 80% methanol extract
Protocol: Both CaCo-2 and MDCK cells were purchased form American Type Culture Collection (ATCC) and cultured with Dulbecco Modified Eagle's Media (DMEM) supplemented with 10% fetal bovine serum, 1% non-essential amino acids, and 10 mM HEPES. All tissue culture media and supplements were purchased from Sigma-Aldrich. Following Yee's method (Yee 1997), CaCo-2 cells were seeded into transwell culture dishes and cultured for 21 days. Lin et al's. (2003) method was used to seed and culture MDCK cells; the culturing period was three days.
(§1) Two natural products: Rhodiola rosea and Red yeast rice were individually extracted using the three solvents described in Example 1. Each extract was dissolved in Hanks' balanced salt buffer supplemented with 20 mM HEPES at 1 mg/ml. Permeability studies were carried out using MDCK cells and samples were taken from the apical side at 0 minute and 60 minutes and from the basal side at 60 minutes after incubation. Samples were diluted with a 1:1 mixture of methanol and acetonitrile prior to analysis using a LC/MS system. Permeability coefficient number was calculated as follows: Peff (cm/sec)=(Vr/(A*Cs))*(Cf/t), where Vr is the receiver side volume (basal; ml), A is the area of monolayer (cm^2), Cs is the starting concentration at the donor side (μM), Cf is the concentration at the receiver side at time t (μM), and t is the incubation time (seconds).
as §1, with “The extracts of” for “Two natural products: Rhodiola rosea and”, “clover” for “yeast rice”, “individually” for “individually extracted using the three solvents described in Example 1. Each extract was”, “(cm/sec)=(Vr/(A*C,))*(Cf/t),” for “(cm/sec)=(Vr/(A*Cs))*(Cf/t),”

[4] = Hollman, van Trijp et al. 1997; cited from earlier work
[5] = after 6 hours of incubation with colonic bacteria
[6] = Rhodiola rosea extracts, 1 mg/ml, 60 minutes, p<0.05

**Q.** For `COc1ccc(-c2coc3cc(O)ccc3c2=O)cc1` [formononetin], which “metabolism by colonic bacteria (change in level)” value [1] is on record?
**A.** Its value is “increase”.

**Q.** What about the “species left in the incubate” value [1, 5] of the same molecule?
**A.** Its value is “major species left”.

**Q.** Which bioavailability [2] does the source give for `CCC/C=C1\OC(=O)C2=C1CCC=C2` [z-ligustilide] here?
**A.** The bioavailability was “less than 3%”.

**Q.** For `Oc1ccc([C@H]2COc3cc(O)ccc3C2)cc1` [Equol], which “metabolism by colonic bacteria (change in level)” value [1] is on record?
**A.** Its value is “appeared shortly after incubation”.

**Q.** And the “species left in the incubate” value [1, 5]?
**A.** The value was “major species left”.

**Q.** For `CC[C@H](C)C(=O)O[C@H]1C[C@@H](C)C=C2C=C[C@H](C)[C@H](CC[C@@H]3C[C@@H](O)CC(=O)O3)[C@H]21` [monacolin K], which “permeability, comparison of water, 80% methanol and hexane extracts” value ([3]; Red yeast rice extracts, 1 mg/ml, 60 minutes) is on record?
**A.** The value was “highest in the hexane extract”.

**Q.** What does the source list for `OC[C@@H]1O[C@@H](OC[C@H]2O[C@@H](OC/C=C/c3ccccc3)[C@H](O)[C@@H](O)[C@@H]2O)[C@H](O)[C@H]1O` [rosarin]?
**A.** permeability versus molecular weight trend ([3]; 1 mg/ml, 60 minutes): deviated significantly from the trend; permeability, 80% methanol extract as opposed to water extract [3, 6]: significantly different

**Q.** Which “species left in the incubate” value [1] does the source give for `COc1ccc(-c2coc3cc(O)cc(O)c3c2=O)cc1` [biochanin A] here?
**A.** Its value is “major species left”.

**Q.** With `O[C@@H]1[C@@H](O)[C@H](OC/C=C/c2ccccc2)O[C@H](CO[C@@H]2OC[C@H](O)[C@H](O)[C@H]2O)[C@H]1O` [rosavin] as the molecule, how does the “permeability versus molecular weight trend” value ([3]; 1 mg/ml, 60 minutes) read?
**A.** Its value is “deviated significantly from the trend”.

**Q.** What about the “permeability, 80% methanol extract as opposed to water extract” value [3, 6] of the same molecule?
**A.** Its value is “significantly different”.

**Q.** With hydroxyrosavin as the molecule, how does the “permeability, 80% methanol extract as opposed to water extract” value ([3]; MDCK) read?
**A.** The value was “significantly different”.

**Q.** For `C[C@@H]1O[C@@H](OC[C@H]2O[C@@H](Oc3c(-c4ccc(O)c(O)c4)oc4cc(O)cc(O)c4c3=O)[C@H](O)[C@@H](O)[C@@H]2O)[C@H](O)[C@H](O)[C@H]1O` [Rutin], which “detection in the blood stream” value [4] is on record?
**A.** The value was “not detected”.
